Results as given in paper PMC9856672, “SGC-CAMKK2-1: A Chemical Probe for CAMKK2” (Cells, 2023).

What was measured:
PAK3 = biological target: T1, PAK3 (Homo sapiens, UniProt O75914); assay: DiscoverX KINOMEscan binding assay at 1 μM, PAK3; details: Compound Concentration 1000 nM, read-out: Percent Control
T1 construct: purchased Eurofins DiscoverX KINOMEscan
Source text: (§1) Supplement cells-12-00287-s001.zip/File S2. KinomeScan data for the CAMKK2 probe and negative control.xlsx, sheet "SGC-CAMKK2-1" | column: Percent Control

ERK1 = biological target: T2, ERK1 (Homo sapiens, UniProt P27361); assay: KINOMEscan 1 μM, ERK1; type: binding; details: 1000 nM; Entrez MAPK3; read-out: Percent Control
T2 construct: purchased Eurofins DiscoverX KINOMEscan
Source text: as §1

HPK1 = biological target: T3, HPK1 (Homo sapiens, UniProt Q92918); assay: KINOMEscan 1 μM, HPK1; type: binding; details: 1000 nM; Entrez MAP4K1; read-out: Percent Control
T3 construct: purchased Eurofins DiscoverX KINOMEscan
Source text: as §1

QSK = biological target: T4, QSK (Homo sapiens, UniProt Q9Y2K2); assay: DiscoverX KINOMEscan binding assay at 1 μM, QSK; details: QSK (KIAA0999); Compound Concentration 1000 nM; read-out: Percent Control
T4 construct: purchased Eurofins DiscoverX KINOMEscan
Source text: as §1

CHEK2 = biological target: T5, CHEK2 (Homo sapiens, UniProt O96017); assay: KINOMEscan 1 μM, CHEK2; type: binding; details: 1000 nM; Entrez CHEK2; read-out: Percent Control
T5 construct: purchased Eurofins DiscoverX KINOMEscan
Source text: as §1

EGFR(G719S) = biological target: T6, EGFR(G719S) (Homo sapiens, UniProt P00533, G719S); assay: KINOMEscan 1 μM, EGFR(G719S); type: binding; details: 1000 nM; Entrez EGFR; read-out: Percent Control
T6 construct: purchased Eurofins DiscoverX KINOMEscan
Source text: as §1

NEK1 = biological target: T7, NEK1 (Homo sapiens, UniProt Q96PY6); assay: KINOMEscan 1 μM, NEK1; type: binding; details: 1000 nM; Entrez NEK1; read-out: Percent Control
T7 construct: purchased Eurofins DiscoverX KINOMEscan
Source text: as §1

NIK = biological target: T8, NIK (Homo sapiens, UniProt Q99558); assay: KINOMEscan 1 μM, NIK; type: binding; details: 1000 nM; Entrez MAP3K14; read-out: Percent Control
T8 construct: purchased Eurofins DiscoverX KINOMEscan
Source text: as §1

CAMK2B = biological target: T9, CAMK2B (Homo sapiens, UniProt Q13554); assay: KINOMEscan 1 μM, CAMK2B; type: binding; details: 1000 nM; Entrez CAMK2B; read-out: Percent Control
T9 construct: purchased Eurofins DiscoverX KINOMEscan
Source text: as §1

PIK3C2G = biological target: T10, PIK3C2G (Homo sapiens, UniProt O75747); assay: KINOMEscan 1 μM, PIK3C2G; type: binding; details: 1000 nM; Entrez PIK3C2G; read-out: Percent Control
T10 construct: purchased Eurofins DiscoverX KINOMEscan
Source text: as §1

TSSK3 = biological target: T11, TSSK3 (Homo sapiens, UniProt Q96PN8); assay: KINOMEscan 1 μM, TSSK3; type: binding; details: 1000 nM; Entrez TSSK3; read-out: Percent Control
T11 construct: purchased Eurofins DiscoverX KINOMEscan
Source text: as §1

ERBB3 = biological target: T12, ERBB3 (Homo sapiens, UniProt P21860); assay: KINOMEscan 1 μM, ERBB3; type: binding; details: 1000 nM; Entrez ERBB3; read-out: Percent Control
T12 construct: purchased Eurofins DiscoverX KINOMEscan
Source text: as §1

[1] = biological target: T13, ABL1(T315I)-phosphorylated (Homo sapiens, UniProt P00519, T315I); assay: KINOMEscan 1 μM, ABL1(T315I)-phosphorylated; type: binding; details: 1000 nM; Entrez ABL1; read-out: Percent Control
T13 construct: purchased Eurofins DiscoverX KINOMEscan
Source text: as §1

PAK4 = biological target: T14, PAK4 (Homo sapiens, UniProt O96013); assay: KINOMEscan 1 μM, PAK4; type: binding; details: 1000 nM; Entrez PAK4; read-out: Percent Control
T14 construct: purchased Eurofins DiscoverX KINOMEscan
Source text: as §1

TXK = biological target: T15, TXK (Homo sapiens, UniProt P42681); assay: DiscoverX KINOMEscan binding assay at 1 μM, TXK; details: Compound Concentration 1000 nM, read-out: Percent Control
T15 construct: purchased Eurofins DiscoverX KINOMEscan
Source text: as §1

[2] = biological target: T16, RSK2(Kin.Dom.2-C-terminal) (Homo sapiens, UniProt P51812); assay: DiscoverX KINOMEscan binding assay at 1 μM, RSK2(Kin.Dom.2-C-terminal); details: RSK2(Kin.Dom.2-C-terminal) (RPS6KA3); Compound Concentration 1000 nM; read-out: Percent Control
T16 construct: RSK2(Kin.Dom.2-C-terminal); purchased Eurofins DiscoverX KINOMEscan
Source text: as §1

ANKK1 = biological target: T17, ANKK1 (Homo sapiens, UniProt Q8NFD2); assay: KINOMEscan at 1 μM, ANKK1; type: binding; details: 1000 nM, read-out: Percent Control
T17 construct: purchased Eurofins DiscoverX KINOMEscan
Source text: (§2) Supplement cells-12-00287-s001.zip/File S2. KinomeScan data for the CAMKK2 probe and negative control.xlsx, sheet "SGC-CAMKK2-1N" | column: Percent Control

FLT3(D835V) = biological target: T18, FLT3(D835V) (Homo sapiens, UniProt P36888, D835V); assay: KINOMEscan at 1 μM, FLT3(D835V); type: binding; details: 1000 nM, read-out: Percent Control
T18 construct: purchased Eurofins DiscoverX KINOMEscan
Source text: as §2

WNK1 = biological target: T19, WNK1 (Homo sapiens, UniProt Q9H4A3); assay: KINOMEscan at 1 μM, WNK1; type: binding; details: 1000 nM, read-out: Percent Control
T19 construct: purchased Eurofins DiscoverX KINOMEscan
Source text: as §2

MARK1 = biological target: T20, MARK1 (Homo sapiens, UniProt Q9P0L2); assay: KINOMEscan at 1 μM, MARK1; type: binding; details: 1000 nM, read-out: Percent Control
T20 construct: purchased Eurofins DiscoverX KINOMEscan
Source text: as §2

CDKL2 = biological target: T21, CDKL2 (Homo sapiens, UniProt Q92772); assay: KINOMEscan at 1 μM, CDKL2; type: binding; details: 1000 nM, read-out: Percent Control
T21 construct: purchased Eurofins DiscoverX KINOMEscan
Source text: as §2

HUNK = biological target: T22, HUNK (Homo sapiens, UniProt P57058); assay: KINOMEscan at 1 μM, HUNK; type: binding; details: 1000 nM, read-out: Percent Control
T22 construct: purchased Eurofins DiscoverX KINOMEscan
Source text: as §2

[3] = biological target: T23, JAK2(JH1domain-catalytic) (Homo sapiens, UniProt O60674); assay: KINOMEscan at 1 μM, JAK2(JH1domain-catalytic); type: binding; details: 1000 nM, read-out: Percent Control
T23 construct: JAK2(JH1domain-catalytic); purchased Eurofins DiscoverX KINOMEscan
Source text: as §2

[4] = biological target: T24, ABL1(F317I)-nonphosphorylated (Homo sapiens, UniProt P00519, F317I); assay: KINOMEscan at 1 μM, ABL1(F317I)-nonphosphorylated; type: binding; details: 1000 nM, read-out: Percent Control
T24 construct: purchased Eurofins DiscoverX KINOMEscan
Source text: as §2

FAK = biological target: T25, FAK (Homo sapiens, UniProt Q05397); assay: KINOMEscan at 1 μM, FAK; type: binding; details: 1000 nM, read-out: Percent Control
T25 construct: purchased Eurofins DiscoverX KINOMEscan
Source text: as §2

KIT(V559D,T670I) = biological target: T26, KIT(V559D,T670I) (Homo sapiens, UniProt P10721, T670I/V559D); assay: KINOMEscan binding assay at 1 μM, KIT(V559D,T670I); details: Compound Concentration 1000 nM; read-out: Percent Control
T26 construct: purchased Eurofins DiscoverX KINOMEscan
Source text: as §2

MARK4 = biological target: T27, MARK4 (Homo sapiens, UniProt Q96L34); assay: KINOMEscan binding assay at 1 μM, MARK4; details: Compound Concentration 1000 nM; read-out: Percent Control
T27 construct: purchased Eurofins DiscoverX KINOMEscan
Source text: as §2

EPHB6 = biological target: T28, EPHB6 (Homo sapiens, UniProt O15197); assay: KINOMEscan at 1 μM, EPHB6; type: binding; details: 1000 nM, read-out: Percent Control
T28 construct: purchased Eurofins DiscoverX KINOMEscan
Source text: as §2

[5] = biological target: T29, ABL1(Q252H)-nonphosphorylated (Homo sapiens, UniProt P00519, Q252H); assay: KINOMEscan at 1 μM, ABL1(Q252H)-nonphosphorylated; type: binding; details: 1000 nM, read-out: Percent Control
T29 construct: purchased Eurofins DiscoverX KINOMEscan
Source text: as §2

MEK4 = biological target: T30, MEK4 (Homo sapiens, UniProt P45985); assay: KINOMEscan at 1 μM, MEK4; type: binding; details: 1000 nM, read-out: Percent Control
T30 construct: purchased Eurofins DiscoverX KINOMEscan
Source text: as §2

SBK1 = biological target: T31, SBK1 (Homo sapiens, UniProt Q52WX2); assay: KINOMEscan at 1 μM, SBK1; type: binding; details: 1000 nM, read-out: Percent Control
T31 construct: purchased Eurofins DiscoverX KINOMEscan
Source text: as §2

CLK1 = biological target: T32, CLK1 (Homo sapiens, UniProt P49759); assay: KINOMEscan at 1 μM, CLK1; type: binding; details: 1000 nM, read-out: Percent Control
T32 construct: purchased Eurofins DiscoverX KINOMEscan
Source text: as §2

T1 sequence (O75914 whole entry): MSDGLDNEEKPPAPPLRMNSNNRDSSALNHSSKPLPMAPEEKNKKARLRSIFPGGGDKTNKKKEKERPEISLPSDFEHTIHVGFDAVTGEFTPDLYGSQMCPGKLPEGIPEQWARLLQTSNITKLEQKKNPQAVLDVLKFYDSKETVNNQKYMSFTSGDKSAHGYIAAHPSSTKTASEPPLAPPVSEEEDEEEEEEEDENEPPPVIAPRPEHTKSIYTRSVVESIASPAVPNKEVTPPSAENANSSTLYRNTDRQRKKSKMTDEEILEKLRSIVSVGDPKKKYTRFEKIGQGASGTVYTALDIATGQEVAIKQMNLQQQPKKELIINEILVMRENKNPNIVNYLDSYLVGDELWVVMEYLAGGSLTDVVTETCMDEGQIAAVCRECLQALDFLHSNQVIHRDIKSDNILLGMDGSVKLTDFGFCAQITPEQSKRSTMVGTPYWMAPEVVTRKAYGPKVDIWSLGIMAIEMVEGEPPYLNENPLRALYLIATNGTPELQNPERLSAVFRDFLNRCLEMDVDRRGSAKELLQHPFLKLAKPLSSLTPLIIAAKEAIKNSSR
T32 sequence (P49759 whole entry): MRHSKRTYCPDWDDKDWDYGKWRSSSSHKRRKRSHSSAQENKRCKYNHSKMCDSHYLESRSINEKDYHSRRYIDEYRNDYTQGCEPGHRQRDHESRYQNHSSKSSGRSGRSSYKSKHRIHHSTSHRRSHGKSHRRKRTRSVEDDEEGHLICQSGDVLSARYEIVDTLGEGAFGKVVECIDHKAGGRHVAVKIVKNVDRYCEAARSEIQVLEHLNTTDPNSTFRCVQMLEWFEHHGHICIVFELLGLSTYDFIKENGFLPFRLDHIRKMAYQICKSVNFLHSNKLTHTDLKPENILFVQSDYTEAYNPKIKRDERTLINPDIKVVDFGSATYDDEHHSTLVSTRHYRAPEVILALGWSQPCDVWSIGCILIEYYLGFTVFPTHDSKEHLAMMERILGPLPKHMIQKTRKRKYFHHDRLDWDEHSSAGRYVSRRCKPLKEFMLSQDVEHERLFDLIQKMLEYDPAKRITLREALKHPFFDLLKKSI
T19 sequence (Q9H4A3 whole entry): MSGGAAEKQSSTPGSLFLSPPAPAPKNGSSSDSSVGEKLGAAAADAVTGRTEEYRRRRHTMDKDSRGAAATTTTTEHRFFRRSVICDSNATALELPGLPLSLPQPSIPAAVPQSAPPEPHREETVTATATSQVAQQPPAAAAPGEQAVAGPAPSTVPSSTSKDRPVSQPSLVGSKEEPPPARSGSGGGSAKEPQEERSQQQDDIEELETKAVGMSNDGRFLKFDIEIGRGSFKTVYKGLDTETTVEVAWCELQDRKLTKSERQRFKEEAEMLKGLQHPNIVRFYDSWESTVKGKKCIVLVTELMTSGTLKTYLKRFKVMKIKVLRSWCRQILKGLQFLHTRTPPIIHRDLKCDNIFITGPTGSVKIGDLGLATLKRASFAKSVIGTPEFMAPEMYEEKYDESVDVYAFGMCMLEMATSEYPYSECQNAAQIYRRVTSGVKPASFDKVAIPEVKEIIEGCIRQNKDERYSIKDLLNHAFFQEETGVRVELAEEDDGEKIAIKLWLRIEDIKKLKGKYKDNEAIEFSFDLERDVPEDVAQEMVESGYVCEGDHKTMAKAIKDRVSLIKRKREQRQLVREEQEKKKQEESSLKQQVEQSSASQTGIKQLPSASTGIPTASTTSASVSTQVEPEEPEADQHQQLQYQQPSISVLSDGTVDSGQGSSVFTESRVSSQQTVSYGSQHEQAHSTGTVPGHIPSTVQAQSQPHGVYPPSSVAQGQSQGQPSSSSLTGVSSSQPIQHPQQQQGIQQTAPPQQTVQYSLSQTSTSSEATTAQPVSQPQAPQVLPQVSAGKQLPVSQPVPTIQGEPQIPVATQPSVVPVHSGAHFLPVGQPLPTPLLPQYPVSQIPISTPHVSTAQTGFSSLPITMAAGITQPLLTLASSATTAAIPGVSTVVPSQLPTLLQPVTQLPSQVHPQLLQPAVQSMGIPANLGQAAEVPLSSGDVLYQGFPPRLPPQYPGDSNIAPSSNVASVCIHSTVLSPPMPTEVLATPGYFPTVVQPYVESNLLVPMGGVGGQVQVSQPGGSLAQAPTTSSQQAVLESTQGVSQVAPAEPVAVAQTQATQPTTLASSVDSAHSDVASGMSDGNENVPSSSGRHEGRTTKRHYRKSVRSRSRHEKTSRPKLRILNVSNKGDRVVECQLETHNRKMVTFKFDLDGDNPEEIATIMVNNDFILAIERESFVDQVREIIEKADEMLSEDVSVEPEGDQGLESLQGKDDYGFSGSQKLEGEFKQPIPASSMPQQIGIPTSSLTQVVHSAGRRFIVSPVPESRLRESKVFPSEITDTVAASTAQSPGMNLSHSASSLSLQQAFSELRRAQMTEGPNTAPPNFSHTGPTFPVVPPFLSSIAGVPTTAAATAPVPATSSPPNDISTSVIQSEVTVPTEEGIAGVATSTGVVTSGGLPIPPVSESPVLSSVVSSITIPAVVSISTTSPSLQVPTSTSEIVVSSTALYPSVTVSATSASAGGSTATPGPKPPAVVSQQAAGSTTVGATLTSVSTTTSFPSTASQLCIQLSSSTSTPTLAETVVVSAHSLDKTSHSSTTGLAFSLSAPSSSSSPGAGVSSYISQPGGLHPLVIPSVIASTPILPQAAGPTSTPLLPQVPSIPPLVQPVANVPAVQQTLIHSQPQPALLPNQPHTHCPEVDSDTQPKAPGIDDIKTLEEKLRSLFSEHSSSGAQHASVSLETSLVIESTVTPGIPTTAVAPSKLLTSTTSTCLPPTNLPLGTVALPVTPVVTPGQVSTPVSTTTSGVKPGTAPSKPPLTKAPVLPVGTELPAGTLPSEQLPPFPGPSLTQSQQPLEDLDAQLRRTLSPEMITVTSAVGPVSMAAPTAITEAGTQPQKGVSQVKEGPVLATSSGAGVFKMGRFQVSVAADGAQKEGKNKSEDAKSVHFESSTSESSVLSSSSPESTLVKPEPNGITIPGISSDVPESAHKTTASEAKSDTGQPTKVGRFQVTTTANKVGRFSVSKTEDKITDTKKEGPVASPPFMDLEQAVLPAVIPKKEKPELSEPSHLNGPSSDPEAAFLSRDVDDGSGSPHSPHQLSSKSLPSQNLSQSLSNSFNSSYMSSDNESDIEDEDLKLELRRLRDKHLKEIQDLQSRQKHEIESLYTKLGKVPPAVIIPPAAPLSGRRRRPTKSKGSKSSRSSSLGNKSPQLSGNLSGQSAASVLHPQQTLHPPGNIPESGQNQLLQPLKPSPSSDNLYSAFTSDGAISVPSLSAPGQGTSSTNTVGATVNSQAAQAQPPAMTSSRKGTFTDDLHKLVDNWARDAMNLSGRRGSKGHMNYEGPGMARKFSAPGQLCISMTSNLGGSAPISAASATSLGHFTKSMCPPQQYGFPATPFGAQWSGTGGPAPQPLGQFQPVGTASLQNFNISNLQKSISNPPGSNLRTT
T12 sequence (P21860 20-1342): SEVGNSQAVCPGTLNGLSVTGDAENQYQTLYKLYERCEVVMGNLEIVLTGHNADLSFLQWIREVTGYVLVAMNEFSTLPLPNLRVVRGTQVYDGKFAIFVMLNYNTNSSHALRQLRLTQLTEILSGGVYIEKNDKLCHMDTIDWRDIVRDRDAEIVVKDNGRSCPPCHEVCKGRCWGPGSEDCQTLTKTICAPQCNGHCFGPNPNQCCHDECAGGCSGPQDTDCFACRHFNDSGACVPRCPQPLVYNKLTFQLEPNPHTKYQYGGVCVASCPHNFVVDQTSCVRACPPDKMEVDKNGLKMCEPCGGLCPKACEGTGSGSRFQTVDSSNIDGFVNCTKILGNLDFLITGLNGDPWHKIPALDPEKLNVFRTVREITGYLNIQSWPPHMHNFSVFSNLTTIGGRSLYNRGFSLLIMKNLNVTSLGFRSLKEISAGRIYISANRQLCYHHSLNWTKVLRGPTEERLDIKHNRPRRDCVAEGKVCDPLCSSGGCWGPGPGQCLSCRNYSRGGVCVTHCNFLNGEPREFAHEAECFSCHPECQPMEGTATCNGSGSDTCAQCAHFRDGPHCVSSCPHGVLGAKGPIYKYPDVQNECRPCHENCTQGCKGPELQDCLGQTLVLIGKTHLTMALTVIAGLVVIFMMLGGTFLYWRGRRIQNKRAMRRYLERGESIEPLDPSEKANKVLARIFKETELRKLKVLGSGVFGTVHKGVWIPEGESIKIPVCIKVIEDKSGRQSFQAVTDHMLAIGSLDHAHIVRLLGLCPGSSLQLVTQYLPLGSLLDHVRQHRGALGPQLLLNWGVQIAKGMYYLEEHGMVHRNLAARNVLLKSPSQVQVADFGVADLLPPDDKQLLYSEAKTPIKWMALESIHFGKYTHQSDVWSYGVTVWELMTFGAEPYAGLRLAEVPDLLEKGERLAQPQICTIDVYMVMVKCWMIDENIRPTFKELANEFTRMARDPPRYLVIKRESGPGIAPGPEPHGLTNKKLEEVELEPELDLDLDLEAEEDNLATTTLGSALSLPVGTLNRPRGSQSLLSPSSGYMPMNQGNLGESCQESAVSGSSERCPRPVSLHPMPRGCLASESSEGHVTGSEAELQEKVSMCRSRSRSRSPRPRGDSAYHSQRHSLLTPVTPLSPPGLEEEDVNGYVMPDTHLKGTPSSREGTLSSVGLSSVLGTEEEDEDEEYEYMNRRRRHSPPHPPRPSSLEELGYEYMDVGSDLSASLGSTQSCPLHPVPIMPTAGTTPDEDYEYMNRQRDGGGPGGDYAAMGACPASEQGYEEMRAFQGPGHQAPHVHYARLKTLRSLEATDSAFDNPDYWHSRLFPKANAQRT
T23 sequence (O60674 840-1132 limits assumed): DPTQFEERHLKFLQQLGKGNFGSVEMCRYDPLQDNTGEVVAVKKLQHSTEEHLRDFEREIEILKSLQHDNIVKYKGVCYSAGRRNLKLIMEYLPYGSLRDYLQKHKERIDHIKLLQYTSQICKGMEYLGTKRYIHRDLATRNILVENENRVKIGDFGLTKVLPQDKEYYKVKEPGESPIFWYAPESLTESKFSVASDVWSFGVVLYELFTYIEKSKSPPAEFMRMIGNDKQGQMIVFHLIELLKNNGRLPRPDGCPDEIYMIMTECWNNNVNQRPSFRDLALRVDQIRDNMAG

Cc1cccc(-c2cnc3occ(-c4ccc(C(=O)O)c(C5CCCC5)c4)c3c2)c1 [SGC-CAMKK2-1 (YL-36)]
remaining binding at 1 µM (PAK3): 100%
remaining binding at 1 µM (ERK1): 100%
remaining binding at 1 µM (HPK1): 100%
remaining binding at 1 µM (QSK): 100%
remaining binding at 1 µM (CHEK2): 92%
remaining binding at 1 µM (EGFR(G719S)): 77%
remaining binding at 1 µM (NEK1): 85%
remaining binding at 1 µM (NIK): 89%
remaining binding at 1 µM (CAMK2B): 86%
remaining binding at 1 µM (PIK3C2G): 81%
remaining binding at 1 µM (TSSK3): 98%
remaining binding at 1 µM (ERBB3): 86%
remaining binding at 1 µM [1]: 100%
remaining binding at 1 µM (PAK4): 69%
remaining binding at 1 µM (TXK): 100%
remaining binding at 1 µM [2]: 100%

O=C(O)c1ccc(-c2coc3ncc(-c4ccccc4)cc23)cc1Cl [SGC-CAMKK2-1N (UNC-YL-83)]
remaining binding at 1 µM (ANKK1): 78%
remaining binding at 1 µM (FLT3(D835V)): 97%
remaining binding at 1 µM (WNK1): 66%
remaining binding at 1 µM (MARK1): 97%
remaining binding at 1 µM (CDKL2): 74%
remaining binding at 1 µM (HUNK): 87%
remaining binding at 1 µM [3]: 80%
remaining binding at 1 µM [4]: 37%
remaining binding at 1 µM (FAK): 96%
remaining binding at 1 µM (KIT(V559D,T670I)): 100%
remaining binding at 1 µM (MARK4): 100%
remaining binding at 1 µM (EPHB6): 75%
remaining binding at 1 µM [5]: 59%
remaining binding at 1 µM (MEK4): 81%
remaining binding at 1 µM (SBK1): 67%
remaining binding at 1 µM (CLK1): 79%
